The values below come from patent publication US12552753B2, “Methods and compositions for targeting Tregs using CCR8 inhibitors” (Nanjing Immunophage Biomedical Co., Ltd., priority 2020, dated 2026).

Molecules are shown by their SMILES. Where a name gives a salt, the structure may show the parent alone.

The target in one assay is CCR8 (Homo sapiens, UniProt P51685). In words: Tango assay (Tango-CCR8-Gal4-CHO-K1 cells, CCL1-stimulated, ONE-Glo luminescence). Conditions: Tango Assay IC50, Inhibition of CCR8 Tango cell in vitro.
Sequence of CCR8 (P51685 whole entry, the tested form may be a part): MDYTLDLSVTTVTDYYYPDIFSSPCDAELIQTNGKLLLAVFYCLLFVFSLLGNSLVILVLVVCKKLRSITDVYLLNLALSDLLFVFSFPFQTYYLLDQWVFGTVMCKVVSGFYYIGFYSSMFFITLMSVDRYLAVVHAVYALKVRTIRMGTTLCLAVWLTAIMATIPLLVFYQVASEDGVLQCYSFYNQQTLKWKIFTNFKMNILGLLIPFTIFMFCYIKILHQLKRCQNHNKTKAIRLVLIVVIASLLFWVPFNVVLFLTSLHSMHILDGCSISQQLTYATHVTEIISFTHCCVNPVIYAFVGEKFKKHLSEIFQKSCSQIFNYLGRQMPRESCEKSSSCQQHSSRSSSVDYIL
On to `Cc1ccccc1C(=O)Nc1ccc(S(=O)(=O)N[C@H](C)C2CCN(C(=O)OC(C)(C)C)CC2)cc1C#N` [Compound 193, (R)-tert-butyl 4-(1-(3-cyano-4-(2-methylbenzamido)phenylsulfonamido)ethyl) piperidine-1-carboxylate], for which the IC50 was > 10000 nM. On the same count and under the same terms, to `Cc1ccccc1C(=O)Nc1ccc(S(=O)(=O)N[C@H](C)C2CCNCC2)cc1C(N)=O` [Compound 194, (R)-N-(2-carbamoyl-4-(N-(1-(piperidin-4-yl)ethyl)sulfamoyl)phenyl)-2-methylbenzamide] belongs > 10000 nM. As for `Cc1ccccc1C(=O)Nc1ccc(S(=O)(=O)N[C@H](C)C2CCNCC2)cc1C#N` [Compound 195, (R)-N-(2-cyano-4-(N-(1-(piperidin-4-yl)ethyl)sulfamoyl)phenyl)-2-methylbenzamide], the IC50 came to 23 nM. `CCc1cc(S(=O)(=O)N[C@H](C)C2CCNCC2)ccc1NC(=O)c1ccccc1C` [Compound 196, (R)-N-(2-ethyl-4-(N-(1-(piperidin-4-yl)ethyl)sulfamoyl)phenyl)-2-methylbenzamide] displayed an IC50 of 18 nM. Regarding `Cc1ccccc1C(=O)Nc1ccc(S(=O)(=O)N[C@H](C)C2CCNCC2)cc1C(C)C` [Compound 197A, (R)-N-(2-isopropyl-4-(N-(1-(piperidin-4-yl)ethyl)sulfamoyl)phenyl)-2-methylbenzamide hydrochloride], half-maximal inhibition (IC50) required 115 nM. Still for that read-out and setting: as for `Cc1ccccc1C(=O)Nc1ccc(S(=O)(=O)N[C@H](C)C2CCNCC2)cc1C1CC1` [Compound 198, (R)-N-(2-cyclopropyl-4-(N-(1-(piperidin-4-yl)ethyl)sulfamoyl)phenyl)-2-methylbenzamide], the figure is 26 nM; as for `Cc1ccccc1C(=O)Nc1ncc(S(=O)(=O)N[C@H](C)C2CCNCC2)cc1C` [Compound 199A, (R)-2-methyl-N-(3-methyl-5-(N-(1-(piperidin-4-yl)ethyl)sulfamoyl)pyridin-2-yl)benzamide hydrochloride], 438 nM; as for `Cc1cc(S(=O)(=O)N[C@H](C)C2CCN(C(C)C)CC2)ccc1NC(=O)c1ccccc1C` [Compound 200, (R)-N-(4-(N-(1-(1-isopropylpiperidin-4-yl)ethyl)sulfamoyl)-2-methylphenyl)-2-methylbenzamide], 15 nM. Consider `COCCN1CCC([C@@H](C)NS(=O)(=O)c2ccc(NC(=O)c3ccccc3C)c(C)c2)CC1` [Compound 202, (R)-N-(4-(N-(1-(1-(2-methoxyethyl)piperidin-4-yl)ethyl)sulfamoyl)-2-methylphenyl)-2-methylbenzamide], for which 60 nM corresponded to half-maximal inhibition (IC50). Still for that read-out and setting: as for `Cc1cc(S(=O)(=O)N[C@H](C)C2CCN(CCO)CC2)ccc1NC(=O)c1ccccc1C` [Compound 205, (R)-N-(4-(N-(1-(1-(2-hydroxyethyl)piperidin-4-yl)ethyl)sulfamoyl)-2-methylphenyl)-2-methylbenzamide], the figure is 41 nM; as for `Cc1cc(S(=O)(=O)N[C@H](C)C2CCN(CC(F)(F)F)CC2)ccc1NC(=O)c1ccccc1C` [Compound 206, (R)-2-methyl-N-(2-methyl-4-(N-(1-(1-(2,2,2-trifluoroethyl)piperidin-4-yl)ethyl)sulfamoyl)phenyl)benzamide], 61 nM; as for `Cc1cc(S(=O)(=O)N[C@H](C)C2CCNCC2)ccc1NC(=O)Cc1ccccc1` [Compound 207A, (R)-N-(2-methyl-4-(N-(1-(piperidin-4-yl)ethyl)sulfamoyl)phenyl)-2-phenylacetamide hydrochloride], 40 nM. `Cc1cc(S(=O)(=O)N[C@H](C)C2CCNCC2)ccc1NC(=O)C1CCCCC1` [Compound 208A, (R)-N-(2-methyl-4-(N-(1-(piperidin-4-yl)ethyl)sulfamoyl)phenyl) cyclohexanecarboxamide hydrochloride] yielded an IC50 of 55 nM. `Cc1cc(S(=O)(=O)N[C@H](C)C2CCNCC2)ccc1NC(=O)C(C)(C)C` [Compound 209A, (R)-N-(2-methyl-4-(N-(1-(piperidin-4-yl)ethyl)sulfamoyl)phenyl)pivalamide hydrochloride] showed an IC50 of 1100 nM. On to `Cc1cc(S(=O)(=O)N[C@H](C)C2CCNCC2)ccc1NC(=O)c1cccs1` [Compound 210A, (R)-N-(2-methyl-4-(N-(1-(piperidin-4-yl)ethyl)sulfamoyl)phenyl)thiophene-2-carboxamide hydrochloride], for which half-maximal inhibition (IC50) required 161 nM. Same read-out and setting: as for `Cc1cc(S(=O)(=O)N[C@H](C)C2CCNCC2)ccc1NC(=O)c1ccsc1` [Compound 211A, (R)-N-(2-methyl-4-(N-(1-(piperidin-4-yl)ethyl)sulfamoyl)phenyl)thiophene-3-carboxamide hydrochloride], the figure is 96 nM.

`Cc1cc(S(=O)(=O)N[C@H](C)C2CCNCC2)ccc1NC(=O)C1CCOCC1` [Compound 212A, (R)-N-(2-methyl-4-(N-(1-(piperidin-4-yl)ethyl)sulfamoyl)phenyl)tetrahydro-2H-pyran-4-carboxamide hydrochloride] returned an IC50 of 2500 nM. Regarding `Cc1ccccc1C(=O)Nc1ccc(S(=O)(=O)NC(C)CC2CCN(C)CC2)c2ccccc12` (centres unmarked) [Compound 214, 2-methyl-N-(4-(N-(1-(1-methylpiperidin-4-yl)propan-2-yl)sulfamoyl)naphthalen-1-yl)benzamide], the IC50 was > 10000 nM.

In turn, `Cc1ccccc1C(=O)Nc1ccc(S(=O)(=O)N[C@H](C)C2CCN(C)CC2)cc1C#N` [Compound 221, (R)-N-(2-cyano-4-(N-(1-(1-methylpiperidin-4-yl)ethyl)sulfamoyl)phenyl)-2-methylbenzamide] came in with an IC50 of 24 nM. `Cc1ccccc1NC(=O)c1ccc(S(=O)(=O)N[C@H](C)C2CCN(C)CC2)cc1C` [Compound 222, (R)-2-methyl-4-(N-(1-(1-methylpiperidin-4-yl)ethyl)sulfamoyl)-N-(o-tolyl)benzamide] gave an IC50 of 366 nM. `CCC(NS(=O)(=O)c1ccc(NC(=O)c2ccccc2C)c(C)c1)C1CCNCC1` (centres unmarked) [Compound 223A, 2-methyl-N-(2-methyl-4-(N-(1-(piperidin-4-yl)propyl)sulfamoyl)phenyl)benzamide hydrochloride] registered an IC50 of 73 nM.

`Cc1cc(S(=O)(=O)NC(C(C)C)C2CCNCC2)ccc1NC(=O)c1ccccc1C` (centres unmarked) [Compound 224A, 2-methyl-N-(2-methyl-4-(N-(2-methyl-1-(piperidin-4-yl)propyl)sulfamoyl)phenyl)benzamide hydrochloride] registered an IC50 of 494 nM. The same measure, in the same setting: to `Cc1cc(S(=O)(=O)NC(C2CCNCC2)C2CC2)ccc1NC(=O)c1ccccc1C` (centres unmarked) [Compound 225A, N-(4-(N-(cyclopropyl (piperidin-4-yl)methyl)sulfamoyl)-2-methylphenyl)-2-methylbenzamide] belongs 25 nM. The same measure, in the same setting: to `Cc1cc(S(=O)(=O)NC(c2ccccc2)C2CCNCC2)ccc1NC(=O)c1ccccc1C` (centres unmarked) [Compound 227A, 2-methyl-N-(2-methyl-4-(N-(phenyl(piperidin-4-yl)methyl)sulfamoyl)phenyl)benzamide] belongs > 100000 nM.

For the compound `Cc1cc(S(=O)(=O)N[C@H](C)C2C[C@@H]3CCC2N3)ccc1NC(=O)c1ccccc1C` (stereo partly drawn) [Compound 228A, N-(4-(N-(1-(exo-7-azabicyclo[2.2.1]heptan-2-yl)ethyl)sulfamoyl)-2-methylphenyl)-2-methylbenzamide hydrochloride], the IC50 was > 100000 nM.

Regarding `Cc1ccccc1CNc1ccc(S(=O)(=O)N[C@H](C)C2CCN(C)CC2)cc1C` [Compound 229, (R)-3-methyl-4-((2-methylbenzyl)amino)-N-(1-(1-methylpiperidin-4-yl)ethyl)benzenesulfonamide], the IC50 is > 100000 nM.

`Cc1ccccc1C(=O)N(C)c1ccc(S(=O)(=O)N[C@H](C)C2CCNCC2)cc1C` [Compound 231A, (R)-N,2-dimethyl-N-(2-methyl-4-(N-(1-(piperidin-4-yl)ethyl)sulfamoyl)phenyl)benzamide hydrochloride] registered an IC50 of 279 nM. With `CCOC(=O)C(C)(C)C(C)NS(=O)(=O)c1ccc(NC(=O)c2ccccc2C)c(C)c1` (centres unmarked) [Compound 232, ethyl 2,2-dimethyl-3-(3-methyl-4-(2-methylbenzamido)phenylsulfonamido) butanoate], the IC50 was found to be 685 nM.

For `Cc1cc(S(=O)(=O)NC(C)C(C)(C)CO)ccc1NC(=O)c1ccccc1C` (centres unmarked) [Compound 233, 3-((4-(N-(4-hydroxy-3,3-dimethylbutan-2-yl)sulfamoyl)-2-methylphenyl)carbamoyl)-2-methylbenzene-1-ylium], the IC50 turned out to be 886 nM.

The compound `Cc1cc(S(=O)(=O)NC(CO)C2CCNCC2)ccc1NC(=O)c1ccccc1C` (centres unmarked) [Compound 234, N-(4-(N-(2-hydroxy-1-(piperidin-4-yl)ethyl)sulfamoyl)-2-methylphenyl)-2-methylbenzamide] registered an IC50 of 1400 nM. Same read-out and setting: to `Cc1cc(S(=O)(=O)N[C@H](C)C2CCNCC2)ccc1NC(=O)Nc1ccccc1` [Compound 236A, (R)-3-methyl-4-(3-phenylureido)-N-(1-(piperidin-4-yl)ethyl)benzenesulfonamide hydrochloride] belongs 158 nM; to `Cc1cc(S(=O)(=O)N(C)[C@H](C)C2CCNCC2)ccc1NC(=O)c1ccccc1C` [Compound 237A, (R)-2-methyl-N-(2-methyl-4-(N-methyl-N-(1-(piperidin-4-yl)ethyl)sulfamoyl)phenyl)benzamide hydrochloride], > 100000 nM; to `Cc1cc(S(=O)(=O)NCC2CCN(C)CC2)ccc1NC(=O)c1ccccc1C` [Compound 238, 2-methyl-N-(2-methyl-4-(N-((1-methylpiperidin-4-yl)methyl)sulfa-moyl)phenyl)benza-mide], 369 nM. As to `Cc1cc(S(=O)(=O)NC(C)C2CCOCC2)ccc1NC(=O)c1ccccc1C` (centres unmarked) [Compound 239, 2-methyl-N-(2-methyl-4-(N-(1-(tetrahydro-2H-pyran-4-yl)ethyl)sulfamoyl)phen-yl)benzamide], inhibition was half-maximal at 843 nM (IC50).

The assay is the same for the next values; noted with them: read-out: Tango Assay IC50, Inhibition of CCR8 Tango cell in vitro.
For `Cc1ccccc1C(=O)Nc1c(C)cc(S(=O)(=O)N[C@H](C)C2CCN(C)CC2)cc1Cl` [Compound 220, (R)-N-(2-chloro-6-methyl-4-(N-(1-(1-methylpiperidin-4-yl)ethyl)sulfamoyl)phenyl)-2-methylbenzamide], the IC50 came out at 1 nM.

Broadly, the IC50 is the point on the concentration scale where inhibition reaches its midpoint.
